Source: US9925238B2, “Use of peptide for treating angiogenesis-related diseases” (MacKay Memorial Hospital, priority 2014, dated 2018)

Key:
[1] = test system: C57BL/6 mice; assay: Oxygen-induced retinopathy (OIR) retinal neovascularization model; type: in vivo, mouse; settings: FIGS. 9 and 10; for inhibition of angiogenesis (retinal neovascularization) in the OIR model: intravitreal injection at P12, eyes at P17, compared with PBS or scramble peptide, p<0.01
Procedure: The neonatal mouse (C57BL/6) pups of normoxia group (serving as control) were kept in room air until postnatal day 12 (P12), while the pups of OIR group were maintained with their nursing mothers for 5 days in 75% oxygen at P7 and then returned to room air (relative hypoxia) so as to generate oxygen-induced neovascularization at P12. 1 μl of Dsg2 peptide (25 μg), scramble peptide (25 μg) and Avastin (10 μg) were intravitreally injected into mouse eyes at P12, respectively. The animals were killed, and the mouse eyes were enucleated at P17.
Mouse eye cups were fixed in 4% paraformaldehyde for 2 hours. The retina was carefully separated from eye cup, and then incubated with fluorescein-labeled isolectin-B4 (Life technologies) at 4° C. overnight. Samples were coverslipped with Vectashield medium (Vector Laboratories), and the lectin labeling was examined by use of the 20× objective of a Zeiss LSM-510 confocal microscope. Fluorescence volume measurements were recorded by creating image stacks of optical slices within lesions with QWIN software. Values for implicit volume were designated as mean total surface area.

[2] = test system: human umbilical vein endothelial cells (HUVECs); assay: Matrigel angiogenesis assay (tube formation) with HUVECs; type: cell-based; settings: FIGS. 5 and 6; for inhibition of angiogenesis of HUVEC cells on the Matrigel: 24 hours
Procedure: (§1) A total of 200 μl Matrigel was added into wells of a 24-well plate and polymerized for 30 minutes at 37° C. EPC suspensions containing various concentrations of Dsg2 peptide (0.25 mg/ml, 0.5 mg/ml, or 1 mg/ml), scramble peptide (1 mg/ml) or Avastin (10 μg/ml) were plated on the Matrigel-coated wells at a density of 5×10^4 cells (EPCs, or HUVECs) in MV2 medium containing 2% FBS for 24 hours at 37° C. in a 5% CO2 humidified incubator. Each sample was tested in triplicate in the same plate, and wells were photographed with a Leica camera (×40 magnification).
(§2) Tube length in relative to the control was quantified by measuring tubes in 5 randomly chosen fields from each well with QWIN software. Experiments were repeated more than three times. The values were expressed as the means±S.D. for the three independent experiments.

[3] = test system: human endothelial progenitor cells (EPCs); assay: Matrigel angiogenesis assay (tube formation) with EPCs; type: cell-based; settings: for inhibition of angiogenesis in EPCs: FIGS. 3 and 4
Procedure: as §1, §2

[4] = test system: C57BL/6 mice; assay: Matrigel plug assay; type: in vivo, mouse; settings: 7 days
Procedure: 0.5 ml of growth factor-reduced liquid Matrigel respectively containing: (1) heparin (60 U/mL); (2) heparin (60 U/mL), VEGF (10 ng/ml), and PBS; (3) heparin (60 U/mL), VEGF (10 ng/ml), and scramble peptide (1 mg/ml); and (4) heparin (60 U/mL), VEGF (10 ng/ml), and Dsg2 peptide (1 mg/ml) were subcutaneously injecting into the skin near the abdominal midline of C57BL/6 mice. 7 days after injection, mice were euthanized, and Matrigel plugs were surgically removed and analyzed.
For macroscopic analysis of angiogenesis, hemoglobin content in Matrigel was measured with Drabkin reagent 525 (Sigma-Aldrich). Briefly, the Matrigel plug sample was re-liquefied by being place at 4° C. on ice with red cell lysis reagent for 24 hours. After brief centrifugation, 20 μl of supernatant was added to 100 μl of Drabkin solution. The mixture was allowed to stand 30 minute at room temperature, and the absorbance was measured at 540 nm. The obtained hemoglobin content was normalized to the plug weight and the value was expressed as μg hemoglobin/mg Matrigel plug.

Row | Substance | inhibition of angiogenesis (retinal neovascularization) in the OIR model [1] | inhibition of angiogenesis of HUVEC cells on the Matrigel [2] | anti-angiogenic efficacy compared with Avastin ([1]; OIR model, intravitreal) | efficacy in inhibiting tube formation compared with Avastin ([2]; HUVECs on Matrigel) | inhibition of angiogenesis in EPCs ([3]; 0.5 mg/ml (200 uM)) | inhibition of angiogenesis in EPCs ([3]; 1.0 mg/ml (400 uM)) | reduction of tube formation ([3]; 1.0 mg/ml (400 uM), p<0.05) | relative tube length in relative to the control group ([3]; 1.0 mg/ml (400 uM), p<0.05) | formation of newly formed blood vessels in Matrigel plug ([4]; 1 mg/ml in plug with heparin and VEGF, compared with PBS or scramble peptide, FIG. 7) | hemoglobin content of Matrigel plug ([4]; 1 mg/ml in plug, vs plug containing PBS or scramble peptide, p<0.05, FIG. 8) | inhibition of angiogenesis (tube formation) of EPCs on Matrigel ([3]; fragments at 1.0 mg/ml, p<0.05, FIG. 2)
1 | Bevacizumab [Avastin, reference compound] | significantly inhibited the angiogenesis | capable of inhibiting angiogenesis |  |  |  |  |  |  |  |  | 
2 | KINATDADEPNTLNSKISYRC (extra C-terminal cysteine; Dsg2-derived peptide) [Dsg2-derived short peptide, KR20 fragment conjugated with one extra cysteine residue] | significantly inhibited the angiogenesis | capable of inhibiting angiogenesis | better than that of Avastin | more effective than Avastin | significantly inhibited angiogenesis | significantly inhibited angiogenesis | more than 50% | less than 50% | capable of inhibiting the formation of newly formed blood vessels | significantly lower | 
3 | IVSLEPAYPP (IP10) [fragment of the predicted EC2 domain of Dsg2 peptide] |  |  |  |  |  |  |  |  |  |  | can inhibit the angiogenesis
